Experimental data taken from patent US9492554B2, “Methods and compositions related to viral inhibition” (Clemson University Research Foundation (CURF), priority 2009, dated 2016).

Legend:
TAR RNA = assay: UV melting of TAR RNA in presence of ligands (Tm, ΔTm); type: binding, HIV-1; details: for ΔTm: Melting point stabilization of HIV-TAR RNA by Neo Neo dimers, Table 11
Experimental: The reactions were done in the presence of 10 mM sodium cacodylate, 0.5 mM EDTA, 0.1 mM MgCl2 pH 7.0. The heating rate was 0.3° C./min.
UV melting studies of TAR were performed in the presence and absence of various ligands (FIG. 13).

HIV-1 TAR RNA = HIV-1 TAR RNA competition FRET binding assay (Tat peptide probe); details: 100 nM TAR RNA, 100 nM Tat peptide, 25° C., 60 min
Experimental: Before used, HIV-1 TAR RNA (5′-GGC AGA UCUGAG CCU GGG AGC UCU CUG CC-3′, Thermo Scientific) in 10 μM batch in sterile water was heated to 95° C. for 4.5 min, and then cooled rapidly in ice bath for 5 min. This snap-cooling causes the RNA to adopt the kinetically favored hairpin rather than thermodynamically favored duplexes.
The relative affinity of each polyamine for HIV-1 TAR RNA was determined using Fluorescence Resonance Energy Transfer (FRET)-based competitive binding assay with a fluorescein-labeled HIV-1 Tat peptide as described in the literature. The fluorescence experiments were performed with a Spectra Max Fluorimeter (Molecular Devices) at 25° C., with excitation and emission wavelengths of 495 and 570 nm, respectively. All samples were prepared in 96 well plates in 1×TK buffer (50 mM Tris, 20 mM KCl, pH=7.4) with 0.1% Trixton-100 (Sigma).
To a solution of 100 nM HIV-1 TAR RNA and 100 nM fluorescein-labeled HIV-1 Tat peptide, appropriate concentrations (0 nM to 100 μM) of the antagonists were added at 25° C.; total volume of the incubation solution was 80 μL. After 60 min, fluorescence changes of the sample solution were determined by the Spectra Max Fluorimeter Detector.

HIVNL4-3 in MT-2 cells [1] = assay: HIV antigen synthesis in treated cells, immunofluorescence assay (IFA); type: cell-based; details: for percentage of cells positive for HIV antigens, Day 2: MT-2 cells, microM: DPA119 24, DPA52 25, DPA53 9, DPA54 17, DPA55 4, DPA56 8, DPA121 25, virus control 15%; for percentage of cells positive for HIV antigens, Day 4 / percentage of cells positive for HIV antigens, Day 6: same concentrations, virus control 100%
Experimental: (§1) Anti-HIV activities can be routinely checked by measuring the percentage of cells positive for HIV antigens using immunofluorescence assay (IFA) and for the release of pelletable reverse transcriptase (RT) into the supernatant. For these assays, 500,000 MT-2 cells in 1 ml of media were added to the wells of a 24 well tissue culture plate. Next, 0.5 ml of 4× concentrated compound was added to triplicate wells of the plate. The cells and compounds were incubated for 1 hr at 37 C. Finally, 0.5 ml of HIVNL4-3, produced in H9 cells (a CD4+ lymphoblastoid cell line), 100,000 cpm of RT activity per well, was added to each well. Virus control wells contained no compounds. This inoculum is at a multiplicity of infection less than 1. On days 2, 4, and 6, 0.75 mls of supernatants were removed and placed into individual microfuge tubes for RT assay. Next, cells were resuspended in the media and 0.5 mls of the total remaining volume was removed for IFA. Cells were combined from their triplicate infections, pelleted, and the enriched cells were air-dried onto glass slides. The dried cells were fixed in acetonemethanol (50:50). After fixing, cells were stained with HIV immunoglobulin, washed in PBS, and counter-stained with FITC-conjugated goat and human IgG. Slides were washed in PBS and the percentage of HIV-positive cells was determined by epifluorescence (Robinson et al. J Acquire Immune Defic Syndr 2:33-42, 1989).

HIVNL4-3 in MT-2 cells [2] = assay: Release of reverse transcriptase into the culture supernatant; type: cell-based, HIV; details: for Release of reverse transcriptase into the culture supernatant, Day 2: mean of triplicate infections (SD), microM: DPA119 24, DPA52 25, DPA53 9, DPA54 17, DPA55 4, DPA56 8, DPA121 25, virus control 46,029; for Release of reverse transcriptase into the culture supernatant, Day 4 / Release of reverse transcriptase into the culture supernatant, Day 6: mean of triplicate infections; for Release of reverse transcriptase into the culture supernatant, Day 4: virus control 928,112; for Release of reverse transcriptase into the culture supernatant, Day 6: virus control 1,078,741
Excerpt: as §1, with “The disclosed conjugates also reduce the amount of reverse transcriptase (RT) released into the cell culture supernatant upon in vitro cell culture experiments (Table 14 below). […] It is possible that even though the cells are positive for HIV, they are making much fewer unspliced transcripts, and thus the virion release into the media remains suppressed. […] Anti-HIV” for “Anti-HIV”, “On days 2, 4, and 6, 0.75 mls of supernatants were removed and placed into individual microfuge tubes for RT assay.” left out, “[…] The supernatants from each well were precipitated at 4 C overnight in a solution including 30% polyethylene glycol. After precipitation, precipitate was lysed in a solution containing Triton X100, Tris buffer, and DTT. RT activity of each aliquot was determined as incorporation of 3H-dTTP into a poly rA-oligo dT template. After a one hour assay at 37 C, the incorporated dTTP was precipitated onto a ZetaProbe (BioRad) membrane. Slots were excised and placed into liquid scintillation cocktail. After overnight incubation, counts per minute for each sample was determined on a beta counter. Results were calculated as cpm/ml of original culture supernatant (Robinson et al.” for “J Acquire Immune Defic Syndr 2:33-42, 1989).”

Molecule | percentage of cells positive for HIV antigens, Day 2 (HIVNL4-3 in MT-2 cells [1]) | percentage of cells positive for HIV antigens, Day 4 (HIVNL4-3 in MT-2 cells [1]) | percentage of cells positive for HIV antigens, Day 6 (HIVNL4-3 in MT-2 cells [1]) | Release of reverse transcriptase into the culture supernatant, Day 2 (HIVNL4-3 in MT-2 cells [2]) | Release of reverse transcriptase into the culture supernatant, Day 4 (HIVNL4-3 in MT-2 cells [2]) | Release of reverse transcriptase into the culture supernatant, Day 6 (HIVNL4-3 in MT-2 cells [2]) | 5% Toxicity microM (cells) | IC50 (HIV-1 TAR RNA; Table 18) | further results
CN1CCN(c2ccc3nc(-c4ccc(OCc5cn(CCCCCCn6cc(CCCCc7cn(C[C@H]8OC(OC9C(O)[C@H](N)CC(N)[C@H]9O[C@H]9OC(CN)[C@@H](O)C(O)C9N)C(O)C8O[C@H]8OC(CN)[C@@H](O)C(O)C8N)nn7)nn6)nn5)cc4)[nH]c3c2)CC1 (stereo partly shown) [DPA115] |  |  |  |  |  |  |  |  | ΔTm (° C.) (TAR RNA; TAR RNA with ligand vs control, Table 10): 4.1 °C; Tm (° C.) (TAR RNA; TAR RNA with ligand, control without ligand 69.3): 73.4 °C; IC50 (HIV-1 TAR RNA; Table 17): 99.4 ± 21 µM
NCC1O[C@H](OC2C(N)C[C@@H](N)C(O)[C@H]2O[C@@H]2O[C@H](Cn3cc(CCCc4cn(C[C@H]5O[C@@H](O[C@H]6C(O[C@H]7OC(CN)C(O)[C@H](O)C7N)C(N)C[C@@H](N)C6O)[C@@H](O)C5O[C@H]5O[C@@H](CN)C(O)C(O)C5N)nn4)nn3)C(O[C@H]3O[C@@H](CN)C(O)C(O)C3N)[C@@H]2O)C(N)[C@@H](O)C1O (stereo partly shown) [DPA 52] | 15% | 100% | 100% | 21,485 (4,574) cpm/ml | 347,845 cpm/ml | 268,357 cpm/ml | >138 µM |  | 
NCC1O[C@H](OC2C(N)C[C@@H](N)C(O)[C@H]2O[C@@H]2O[C@H](Cn3cc(-c4ccc(-c5cn(C[C@H]6O[C@@H](O[C@H]7C(O[C@H]8OC(CN)C(O)[C@H](O)C8N)C(N)C[C@@H](N)C7O)[C@@H](O)C6O[C@H]6O[C@@H](CN)C(O)C(O)C6N)nn5)cc4)nn3)C(O[C@H]3O[C@@H](CN)C(O)C(O)C3N)[C@@H]2O)C(N)[C@@H](O)C1O (stereo partly shown) [DPA 53] | 2% | 40% | 100% | 8,880 (1,373) cpm/ml | 45,539 cpm/ml | 221,445 cpm/ml | 17 µM |  | 
NCC1O[C@H](OC2C(N)C[C@@H](N)C(O)[C@H]2O[C@@H]2O[C@H](Cn3cc(CCCCc4cn(C[C@H]5O[C@@H](O[C@H]6C(O[C@H]7OC(CN)C(O)[C@H](O)C7N)C(N)C[C@@H](N)C6O)[C@@H](O)C5O[C@H]5O[C@@H](CN)C(O)C(O)C5N)nn4)nn3)C(O[C@H]3O[C@@H](CN)C(O)C(O)C3N)[C@@H]2O)C(N)[C@@H](O)C1O (stereo partly shown) [DPA 54] | 3-5% | 80% | 100% | 14,805 (1,309) cpm/ml | 165,301 cpm/ml | 427,475 cpm/ml | 69 µM |  | 
C/C(CCc1cn(C[C@H]2O[C@@H](O[C@H]3C(O[C@H]4OC(CN)C(O)[C@H](O)C4N)C(N)C[C@@H](N)C3O)[C@@H](O)C2O[C@H]2O[C@@H](CN)C(O)C(O)C2N)nn1)=C(/C)CCc1cn(C[C@H]2O[C@@H](O[C@H]3C(O[C@H]4OC(CN)C(O)[C@H](O)C4N)C(N)C[C@@H](N)C3O)[C@@H](O)C2O[C@H]2O[C@@H](CN)C(O)C(O)C2N)nn1 (stereo partly shown) [DPA 55] | 3-5% | 30% | 100% | 20,072 (3,748) cpm/ml | 107,933 cpm/ml | 305,277 cpm/ml | 8 µM |  | 
NCC1O[C@H](OC2C(N)C[C@@H](N)C(O)[C@H]2O[C@@H]2O[C@H](Cn3cc(COCCCCCCCCOCc4cn(C[C@H]5O[C@@H](O[C@H]6C(O[C@H]7OC(CN)C(O)[C@H](O)C7N)C(N)C[C@@H](N)C6O)[C@@H](O)C5O[C@H]5O[C@@H](CN)C(O)C(O)C5N)nn4)nn3)C(O[C@H]3O[C@@H](CN)C(O)C(O)C3N)[C@@H]2O)C(N)[C@@H](O)C1O (stereo partly shown) [DPA 58] |  |  |  |  |  |  |  |  | ΔTm (TAR RNA): 5.4 °C; IC50 (HIV-1 TAR RNA; Table 17): 0.061 ± 0.013 µM
NCC1O[C@H](OC2C(N)C[C@@H](N)C(O)[C@H]2O[C@@H]2O[C@H](Cn3cc(COCCCCCCCCCCCCOCc4cn(C[C@H]5O[C@@H](O[C@H]6C(O[C@H]7OC(CN)C(O)[C@H](O)C7N)C(N)C[C@@H](N)C6O)[C@@H](O)C5O[C@H]5O[C@@H](CN)C(O)C(O)C5N)nn4)nn3)C(O[C@H]3O[C@@H](CN)C(O)C(O)C3N)[C@@H]2O)C(N)[C@@H](O)C1O (stereo partly shown) [DPA 60] |  |  |  |  |  |  |  |  | ΔTm (TAR RNA): 3.24 °C; IC50 (HIV-1 TAR RNA; Table 17): 0.067 ± 0.009 µM
NC[C@@H]1O[C@H](O[C@H]2[C@@H](O)[C@H](O[C@@H]3[C@@H](O)[C@H](N)C[C@H](N)[C@H]3O[C@H]3O[C@H](CO)[C@@H](O)[C@H](O)[C@H]3N)O[C@@H]2CO)[C@H](N)[C@@H](O)[C@@H]1O [DPA 502, paromomycin, reference compound] |  |  |  |  |  |  |  | 11.4 ± 3.3 µM | 
NC[C@H]1O[C@H](O[C@H]2[C@H](O)[C@@H](O[C@H]3O[C@H](CO)[C@@H](O)[C@H](N)[C@H]3O)[C@H](N)C[C@@H]2N)[C@H](O)[C@@H](O)[C@@H]1O [DPA 503, kanamycin, reference compound] |  |  |  |  |  |  |  | 95.4 ± 20.4 µM | 
CN[C@@H]1C[C@H](N)[C@@H](O)[C@H](OC2O[C@H](CO)[C@H](O)[C@@H]3OC4(O[C@H](C(N)CO)[C@H](O)[C@H](O)[C@H]4O)O[C@@H]23)[C@H]1O (stereo partly shown) [DPA 504, hygromycin, reference compound] |  |  |  |  |  |  |  | > 500 µM | 
lividomycin [DPA 507, reference compound] |  |  |  |  |  |  |  | 92.5 ± 21.9 µM | 
ribostamycin [DPA 508, reference compound] |  |  |  |  |  |  |  | 146 ± 38 µM | 
